What was measured:
[1] = system: subgenomic HCV replicon of genotype 1b (Con1), NS5A region; assay: NS5A sequencing of HCV RNA, mutation frequency in SgPC2 Con1 replicon cells (Example 1); type: cell-based, Hepatitis C virus; details: for dn/ds ratio: control 0.33; for Percentage of sites showing positive selection: control 2.36; for mutation frequency, nucleotide changes per site / amino acid changes per codon: SgPC2 Con1 replicon cells, once daily for 48 hrs, ethanol 0.5%; for mutation frequency, nucleotide changes per site: normalized by T7 baseline
Protocol: Huh7 cell clones (SgPC2 cells) supporting continuous replication of a subgenomic HCV replicon of genotype 1b (Con1 sequence) were used (Choi J. et al. (2004) Hepatology 39:81-89; Blight K J et al. (2000) Science 290:1972). The subgenomic replicons support HCV RNA replication but no virus is formed. The in vitro transcription, transfection of HCV RNA, and Huh7 human hepatoma cell culture were performed by methods known in the art and as previously described (Choi J. et al. (2004) Hepatology 39:81-89; Blight K J et al. (2000) Science 290:1972).
After various treatments, total RNAs were collected using Trizol (Invitrogen). Then, the NS5A region (nt. 4612 to 6013 of Con1 replicon) was reverse transcribed/amplified with AccuScript High Fidelity RT-PCR System (Stratagene). The cDNAs were cloned into pUC19 and sequenced at the Joint Genome Institute (Livermore, Calif.). Sequences were aligned against Con1(S11791) sequence, using BioEdit/MEGA 4.0 Molecular Evolutionary Genetics Analysis software.
To test whether ethanol can increase the mutation rate of HCV, SgPC2 Con1 replicon cells that support genotype 1b subgenomic HCV RNA replication (FIG. 2B) were incubated with ethanol (0.5%), BSO (amplifies the effects of endogenous ROS/RNS by decreasing the level of glutathione in the cell), H2O2 (100 μM), or acetaldehyde (10 μM) once daily for 48 hrs. Then, the RNAs were collected, and the NS5A region (nt. 4612 to 6013 of Con1 replicon) was reverse transcribed/amplified with AccuScript High Fidelity RT-PCR System (Stratagene). Then, the cDNAs were cloned into pUC19 and sequenced at the Joint Genome Institute (Livermore, Calif.). T7 HCV RNA transcript, initially used to transfect the Con1 cells, was also sequenced to assess the basal level of RNA heterogeneity, such as due to any heterogeneity of the DNA template prior to in vitro transcription as well as any errors generated during transcription and RT-PCR cloning. The experiments were focused on NS5A because of its moderate level of diversity and its role in viral replication as well as interferon resistance. Sequences were aligned against Con1(S1179I) sequence, using BioEdit/MEGA 4.0 Molecular Evolutionary Genetics Analysis software.

Con1 replicon cells = assay: 8-OHG oxidative RNA damage in SgPC2 Con1 replicon cells (ELISA); type: cell-based, human; details: for 8-OH-G in Con1 replicon (SgPC2) cells, daily treatment for 2 weeks: 0.1% ethanol, 5 μM acetaldehyde; for 8-OH-G in Con1 replicon (SgPC2) cells, daily treatment for 2 weeks / fold increase in 8-OHG content over the control: 20 μM BSO; for 8-OH-G in SgPC2 cells within 2 days: 0.5% ethanol, BSO; for fold increase in 8-OHG content over the control: 48 hrs, 0.5% (v/v) ethanol, 250 μM NiCl2 daily
Protocol: Total RNA was isolated using Trizol (Invitrogen) and analyzed for 8-OH-guanosine (8-OH-G) by northwestern, as described (Shan X et al. (2003) J. Neurosci. 23:4913-4921). Briefly, RNA was size-fractionated by agarose gel electrophoresis, transferred to a nylon membrane, blocked with 1% BSA, incubated sequentially with monoclonal anti-8-OH-G/dG antibodies (QED Bioscience, Inc.) and then with goat anti-mouse HRP-conjugated secondary antibody (Santa Cruz Biotechnology), and signals were detected, using an ECL kit (Amersham). In addition, RNA was digested with nuclease P1 (Sigma, US Biological) and alkaline phosphatase (Promega) and analyzed for 8-OH-G content using RNA Damage Kit (Cell Biolabs, Inc.), following manufacturer's protocols.
(§1) Total RNA was isolated using Trizol (Invitrogen) and analyzed for 8-OHG by ELISA. Briefly, RNA was incubated with 10 U DNase I (GE Healthcare), 10 U nuclease P1 (Sigma or US Biological), and 10 U alkaline phosphatase (Promega) and analyzed for 8-OHG content with RNA Damage Kit (Cell Biolabs, Inc.) and 8-OHG standards, following manufacturer's protocols.

[2] = system: Huh7 cells transfected with JFH1 RNA; assay: 8-OHG oxidative RNA damage in Huh7 cells transfected with JFH1 RNA (ELISA); type: cell-based, human; details: 48 hr (0.5% ethanol, 20 μM BSO) and 2 weeks (0.1% ethanol, 20 μM BSO)
Protocol: as §1
HCV induces severe oxidative/nitrosative stress in the host by increasing the generation of reactive species. Thus, JFH1 strain of genotype 2a that supports complete replication cycle of HCV and produces infectious HCV in cell culture was used next to determine whether HCV was sufficient to induce oxidative RNA damage even in the absence of ethanol and BSO. Huh7 cells were transfected with JFH1 RNA and either exposed to 0.5% ethanol (v/v) or 20 μM BSO daily for 48 hrs, or to 0.1% ethanol (v/v) or 20 μM BSO with and without 5 μM dipyridyl or 1 mM GSH ester daily with a change of medium prior to each treatment for 2 weeks.

| Structure (SMILES) | amino acid changes, fold higher than the control group ([1]; 48 hrs) [fold] | nucleotide changes, fold higher than the control group ([1]; 48 hrs) | dn/ds ratio ([1]; 48 hrs) | Percentage of sites showing positive selection ([1]; 48 hrs) [%] | mutation frequency, nucleotide changes per site [1] | amino acid changes per codon [1] | 8-OH-G in Con1 replicon (SgPC2) cells, daily treatment for 2 weeks (Con1 replicon cells) | 8-OH-G in SgPC2 cells within 2 days (Con1 replicon cells) | fold increase in 8-OHG content over the control (Con1 replicon cells) [fold] | 8-OHG increased by HCV (JFH1) [2] | Ts/Tv ratio ([1]; 48 hrs, control approximately 2.7) | location of synonymous and nonsynonymous mutations in NS5A ([1]; SNAP plot against codons, 48 hrs) |
| --- | --- | --- | --- | --- | --- | --- | --- | --- | --- | --- | --- | --- |
| CCCCS(=N)(=O)CCC(N)C(=O)O [BSO, L-buthionine-S,R-sulfoximine] | ~12 | about 4 fold | 0.59 | 6.42 | 6.74×10^−4 nucleotide changes per site | 1.67×10^−3 amino acid changes per codon | significant increases | increased | 23.4±1.5 | exacerbated | – | – |
| CCO [Ethanol, ethanol] | ~24 | ~8 fold | 0.76 | 5.14 | 1.33×10^−3 nucleotide changes per site | 3.05×10^−3 amino acid changes per codon | significant increases | increased | 34.9±1.2 | exacerbated | 5.7 | clustered in the C-terminal half of NS5A |
